Test results taken from PMC7933091 (2021).

Tested on: SC-34 (DNA, aptamer) ACCTTAAGTGGGGTTCGGGTGGAGTTTATGGGGT
Assay: ITC, single-site model
Conditions: 20 mM NaCl, 0.5 mM MgCl2; 10 mM Tris, pH 7.4, 23 °C; same value in low-salt PBS

Q: For `CCC[C@H](C(=O)c1ccc2c(c1)OCO2)N1CCCC1`, which KD is on record?
A: ~ 300 nM
